Consider 1 substance from PMC4955146, “Virtual screening and experimental validation of novel histone deacetylase inhibitors” (BMC Pharmacology & Toxicology, 2016).

The assay concerns HDACs in HeLa nuclear extracts. Briefly: HDAC inhibitory activity assay (fluorometric HDAC inhibitor drug screening kit). The class given is biochemical. The following applies: percentage of the positive control, inhibitor control at 20 μM.

Protocol: The HDAC inhibitor drug screening kit (k340-100, BioVision, CA, USA) was used to measure HDAC inhibitory activities of the candidate compounds according to the manufacturer’s instructions. The candidate compounds, assay buffer, and HDAC fluorometric substrate, which comprises an acetylated lysine side chain, were added to HeLa nuclear extracts in a 96-well plate and incubated at 37 °C for 30 min. The reaction was stopped by adding lysine developer, and the mixture was incubated for another 30 min at 37 °C. An additional positive control included incubation with double-distilled water, and the inhibitor control consisted of incubation with Trichostatin A (TSA) at 20 μM. HDAC activities were quantified by a fluorescence plate reader (POLARstar OPTIMA, BMG, BRD) with excitation at 370 nm and emission at 450 nm.

Trichostatin A [TSA] returned a relative enzymatic activity of 12%.
